The structures appear in SMILES notation. Where a SMILES comes first, the peptide text is derived from it.

Holding throughout (assay type): cell-based
For one assay, the system named is R5 HIV-1. The note with it: R5, 2 h, 10.
A further assay has as its system Candida albicans UP10. Conditions: for Anti-Candida activity (%) at 100 µg/mL: C7/pc42 H2 alanine-substituted derivatives, 37°C, 6 h, CFU assay, triplicate; for EC50: UP10, 6 h; for EC50asd/EC50H2: anti-Candida EC50 of the derivative relative to C7/pc42 H2.
For assay [1], the system named is B16F10-Nex2 murine melanoma cells. Conditions: 12 h.
Protocol: Each peptide was tested in triplicate. After 12 h, the cytotoxic activities of the peptides were determined by measuring cell viability by Trypan Blue exclusion.

Protocol for Candida albicans UP10: The alanine substituted derivatives (asd), defined according to the position held by the alanine-substituted aminoacid, were tested in the same biological assays to critically establish the functional relevance of each residue [5]. In vitro microbicidal activity of CDR peptides and selected asd against C. albicans UP 10 (clinical isolate from the fungi collection of the University of Parma) and C. albicans NCPF 3153 (National Collection of Pathogenic Fungi, Bristol, UK) were used for the in vitro experiments.
The microbicidal activity of synthetic CDRs against C. albicans strains was preliminarily evaluated by testing 100 µg/mL of each synthetic peptide by colony forming unit (CFU) assays as previously described [5]. Briefly, 10 µL of a distilled water suspension containing ∼5×10^4/mL germinating yeast cells were added to 90 µL of distilled water containing the synthetic peptide to be tested. Yeast suspensions were incubated at 37°C for 6 h. After incubation, the cell suspensions were plated on Sabouraud dextrose agar, incubated at 30°C and observed for CFU determination after 48–72 hours. Each assay was carried out in triplicate. […] EC50 was calculated by nonlinear regression analysis using Graph Pad Prism 4.01 software, San Diego, CA, USA.
Protocol for R5 HIV-1: Briefly, for endogenous HIV-1 replication assays peripheral blood mononuclear cells (PBMCs) from R5 HIV-1-infected patients characterized by high viral RNA titers in plasma and cell-associated viremia were cultured in 96-well plates at 1×10^6 cells/mL in RPMI 1640 medium with 10% fetal calf serum (FCS) and 20 U/mL of rIL-2. Exogenous rIL-2 was added every 3–4 days. Cultures were treated with synthetic mAb CDRs and mAb C7/pc42 H1 asd at 10 µg/mL during the time of culture. Virus production on days 5 and 10 was assayed in the supernatants using ultrasensitive Alliance® HIV-1 p24 ELISA kit (Perkin Elmer); p24 Ag in the supernatants of untreated cultures corresponded to 100% of viral production. For exogenous infection assays, PHA-stimulated PBMCs obtained from healthy individuals were infected with BaL (R5) or IIIB (X4) HIV-1 strain at a median tissue culture infective dose (TCID50) of 500 TCID50/ml. After 2 h of adsorption, the cells were washed, suspended at 2×10^5 cells/ml in medium and cultured in 96-well cultures plates. At time zero of infection, synthetic peptides were added to the cultures at 10 µg/ml and were maintained throughout the experiment. All assays were performed in triplicate. Virus production was assayed 10 days after infection in the supernatants of HIV-1-infected PBMCs by p24 assay.

With `CSCC[C@H](NC(=O)[C@H](Cc1ccc(O)cc1)NC(=O)[C@H](Cc1ccc(O)cc1)NC(=O)[C@H](C)N)C(=O)N[C@@H](Cc1c[nH]cn1)C(=O)O` [G1A] (H-AYYMH-OH; N-terminus and C-terminus assumed), the “% inhibitory activity (10 µg/ml)” value in the assay with R5 HIV-1 is on record as 0%.

As to `CSCC[C@H](NC(=O)[C@H](Cc1ccc(O)cc1)NC(=O)[C@H](Cc1ccc(O)cc1)NC(=O)CN)C(=O)N[C@@H](C)C(=O)O` [H5A] (H-GYYMA-OH; N-terminus and C-terminus assumed), in the assay with R5 HIV-1, the “% inhibitory activity (10 µg/ml)” value came to 0%.

With `CC[C@H](C)[C@H](NC(=O)[C@@H](N)Cc1ccc(O)cc1)C(=O)N[C@@H](CO)C(=O)N[C@@H](CS)C(=O)N[C@@H](Cc1ccc(O)cc1)C(=O)N[C@@H](C)C(=O)NCC(=O)N[C@@H](C)C(=O)N[C@H](C(=O)N[C@@H](CO)C(=O)N[C@@H](Cc1ccc(O)cc1)C(=O)N[C@@H](CC(N)=O)C(=O)N[C@@H](CCC(N)=O)C(=O)N[C@@H](CCCCN)C(=O)N[C@@H](Cc1ccccc1)C(=O)N[C@@H](CCCCN)C(=O)O)[C@@H](C)O` [N6A] (H-YISCYAGATSYNQKFK-OH; N-terminus and C-terminus assumed), in the assay on Candida albicans UP10, the “Anti-Candida activity (%) at 100 µg/mL” value was 100.00%, the EC50 (commonly the concentration giving half of the maximal effect) was 1.54 µM and the EC50asd/EC50H2 was found to be 0.37. Besides, the response in assay [1] was half-maximal at 76.9 µM (EC50).

On to `CC[C@H](C)[C@H](NC(=O)[C@@H](N)Cc1ccc(O)cc1)C(=O)N[C@@H](CO)C(=O)N[C@@H](CS)C(=O)N[C@@H](Cc1ccc(O)cc1)C(=O)N[C@@H](CC(N)=O)C(=O)NCC(=O)N[C@@H](C)C(=O)N[C@H](C(=O)N[C@@H](CO)C(=O)N[C@@H](Cc1ccc(O)cc1)C(=O)N[C@@H](C)C(=O)N[C@@H](CCC(N)=O)C(=O)N[C@@H](CCCCN)C(=O)N[C@@H](Cc1ccccc1)C(=O)N[C@@H](CCCCN)C(=O)O)[C@@H](C)O` [N12A] (H-YISCYNGATSYAQKFK-OH; N-terminus and C-terminus assumed), for which, in the assay with Candida albicans UP10, the “Anti-Candida activity (%) at 100 µg/mL” value turned out to be 100.00%, the EC50 turned out to be 6.48 µM and the EC50asd/EC50H2 is reported as 1.55. In assay [1], this compound gave an EC50 of 125 µM.

For `CC[C@H](C)[C@H](NC(=O)[C@@H](N)Cc1ccc(O)cc1)C(=O)N[C@@H](CO)C(=O)N[C@@H](CS)C(=O)N[C@@H](Cc1ccc(O)cc1)C(=O)N[C@@H](CC(N)=O)C(=O)NCC(=O)N[C@@H](C)C(=O)N[C@H](C(=O)N[C@@H](CO)C(=O)N[C@@H](Cc1ccc(O)cc1)C(=O)N[C@@H](CC(N)=O)C(=O)N[C@@H](C)C(=O)N[C@@H](CCCCN)C(=O)N[C@@H](Cc1ccccc1)C(=O)N[C@@H](CCCCN)C(=O)O)[C@@H](C)O` [Q13A] (H-YISCYNGATSYNAKFK-OH; N-terminus and C-terminus assumed), in the assay with Candida albicans UP10, the “Anti-Candida activity (%) at 100 µg/mL” value was determined as 100.00%, the EC50 is 3.91 µM and the EC50asd/EC50H2 came out at 0.93. The compound further displayed an EC50 in assay [1] of 128 µM.

Consider `CC[C@H](C)[C@H](NC(=O)[C@@H](N)Cc1ccc(O)cc1)C(=O)N[C@@H](C)C(=O)N[C@@H](CS)C(=O)N[C@@H](Cc1ccc(O)cc1)C(=O)N[C@@H](CC(N)=O)C(=O)NCC(=O)N[C@@H](C)C(=O)N[C@H](C(=O)N[C@@H](CO)C(=O)N[C@@H](Cc1ccc(O)cc1)C(=O)N[C@@H](CC(N)=O)C(=O)N[C@@H](CCC(N)=O)C(=O)N[C@@H](CCCCN)C(=O)N[C@@H](Cc1ccccc1)C(=O)N[C@@H](CCCCN)C(=O)O)[C@@H](C)O` [S3A] (H-YIACYNGATSYNQKFK-OH; N-terminus and C-terminus assumed), for which, in the assay with Candida albicans UP10, the “Anti-Candida activity (%) at 100 µg/mL” value worked out at 100.00%, the concentration for a half-maximal effect (EC50) turned out to be 3.12 µM and the EC50asd/EC50H2 stood at 0.74. The same compound came in with an EC50 in assay [1] of 64.9 µM.

With `CC[C@H](C)[C@H](NC(=O)[C@@H](N)Cc1ccc(O)cc1)C(=O)N[C@@H](CO)C(=O)N[C@@H](CS)C(=O)N[C@@H](Cc1ccc(O)cc1)C(=O)N[C@@H](CC(N)=O)C(=O)NCC(=O)N[C@@H](C)C(=O)N[C@H](C(=O)N[C@@H](C)C(=O)N[C@@H](Cc1ccc(O)cc1)C(=O)N[C@@H](CC(N)=O)C(=O)N[C@@H](CCC(N)=O)C(=O)N[C@@H](CCCCN)C(=O)N[C@@H](Cc1ccccc1)C(=O)N[C@@H](CCCCN)C(=O)O)[C@@H](C)O` [S10A] (H-YISCYNGATAYNQKFK-OH; N-terminus and C-terminus assumed), in the assay with Candida albicans UP10, the “Anti-Candida activity (%) at 100 µg/mL” value turned out to be 100.00%, the concentration giving a half-maximal response (EC50) turned out to be 13.2 µM and the EC50asd/EC50H2 is 3.16. Further, in assay [1], the EC50 came to 119 µM.

Turning to `CC[C@H](C)[C@H](NC(=O)[C@@H](N)Cc1ccc(O)cc1)C(=O)N[C@@H](CO)C(=O)N[C@@H](CS)C(=O)N[C@@H](Cc1ccc(O)cc1)C(=O)N[C@@H](CC(N)=O)C(=O)NCC(=O)N[C@@H](C)C(=O)N[C@@H](C)C(=O)N[C@@H](CO)C(=O)N[C@@H](Cc1ccc(O)cc1)C(=O)N[C@@H](CC(N)=O)C(=O)N[C@@H](CCC(N)=O)C(=O)N[C@@H](CCCCN)C(=O)N[C@@H](Cc1ccccc1)C(=O)N[C@@H](CCCCN)C(=O)O` [T9A] (H-YISCYNGAASYNQKFK-OH; N-terminus and C-terminus assumed), in the assay with Candida albicans UP10, the “Anti-Candida activity (%) at 100 µg/mL” value was found to be 100.00%, the EC50 was 3.8 µM and the EC50asd/EC50H2 is 0.91. Further, a half-maximal effect in assay [1] (EC50) was put at 60.2 µM.

As to `CC[C@H](C)[C@H](NC(=O)[C@H](C)N)C(=O)N[C@@H](CO)C(=O)N[C@@H](CS)C(=O)N[C@@H](Cc1ccc(O)cc1)C(=O)N[C@@H](CC(N)=O)C(=O)NCC(=O)N[C@@H](C)C(=O)N[C@H](C(=O)N[C@@H](CO)C(=O)N[C@@H](Cc1ccc(O)cc1)C(=O)N[C@@H](CC(N)=O)C(=O)N[C@@H](CCC(N)=O)C(=O)N[C@@H](CCCCN)C(=O)N[C@@H](Cc1ccccc1)C(=O)N[C@@H](CCCCN)C(=O)O)[C@@H](C)O` [Y1A] (H-AISCYNGATSYNQKFK-OH; N-terminus and C-terminus assumed), in the assay with Candida albicans UP10, the “Anti-Candida activity (%) at 100 µg/mL” value worked out at 99.37%; the midpoint of the response, the EC50, lay at 6.21 µM; the EC50asd/EC50H2 worked out at 1.48. In assay [1], this compound showed an EC50 of 71.4 µM.

For `CC[C@H](C)[C@H](NC(=O)[C@@H](N)Cc1ccc(O)cc1)C(=O)N[C@@H](CO)C(=O)N[C@@H](CS)C(=O)N[C@@H](C)C(=O)N[C@@H](CC(N)=O)C(=O)NCC(=O)N[C@@H](C)C(=O)N[C@H](C(=O)N[C@@H](CO)C(=O)N[C@@H](Cc1ccc(O)cc1)C(=O)N[C@@H](CC(N)=O)C(=O)N[C@@H](CCC(N)=O)C(=O)N[C@@H](CCCCN)C(=O)N[C@@H](Cc1ccccc1)C(=O)N[C@@H](CCCCN)C(=O)O)[C@@H](C)O` [Y5A] (H-YISCANGATSYNQKFK-OH; N-terminus and C-terminus assumed), in the assay with Candida albicans UP10, the “Anti-Candida activity (%) at 100 µg/mL” value was determined as 98.10%, the EC50 was determined as 28.5 µM and the EC50asd/EC50H2 stood at 6.81. In assay [1], the response was half-maximal at 73.5 µM (EC50).

In the case of `CC[C@H](C)[C@H](NC(=O)[C@@H](N)Cc1ccc(O)cc1)C(=O)N[C@@H](CO)C(=O)N[C@@H](CS)C(=O)N[C@@H](Cc1ccc(O)cc1)C(=O)N[C@@H](CC(N)=O)C(=O)NCC(=O)N[C@@H](C)C(=O)N[C@H](C(=O)N[C@@H](CO)C(=O)N[C@@H](C)C(=O)N[C@@H](CC(N)=O)C(=O)N[C@@H](CCC(N)=O)C(=O)N[C@@H](CCCCN)C(=O)N[C@@H](Cc1ccccc1)C(=O)N[C@@H](CCCCN)C(=O)O)[C@@H](C)O` [Y11A] (H-YISCYNGATSANQKFK-OH; N-terminus and C-terminus assumed), in the assay on Candida albicans UP10, the “Anti-Candida activity (%) at 100 µg/mL” value is given as 55.70%, a half-maximal effect (EC50) was put at 47.6 µM and the EC50asd/EC50H2 is given as 11.35. In assay [1], this compound registered an EC50 of 113 µM.

(Values after PMC2396520, “Antibody Complementarity-Determining Regions (CDRs) Can Display Differential Antimicrobial, Antiviral and Antitumor Activities” (PLoS ONE, 2008).)
